Six compounds from patent US20260049101A1, “TOPICAL TREATMENT OF SKIN CANCER USING OLIGOPEPTIDES” (BACOBA AG, priority 2022, published 2026) can be followed below.

Data set [1] has as its system patient derived Basal Cell Carcinoma (BCC). The data set is classed as cell-based, human. The note with it: 20 μM, 4 days, vs DMSO; p<0.002. From the text: Tumour material was harvested from an infiltrative basal cell carcinoma (BCC) from a patient's nose.
Data set [2] shares this test system. The data set is classed as cell-based, human. To be noted: 20 μM, 4 days, vs DMSO.
Data set [3] has as its system cutaneous squamous cell carcinoma cell line SCC12. Description: In vitro anti-proliferative assay (resazurin) in SCC12. The data set is classed as cell-based. The note with it: SCC12, 72 hours. From the text: Methodology. The cutaneous squamous cell carcinoma cell culture SCC12 was cultivated in keratinocyte-SFM media (KSFM, Cat #17005042, Gibco) supplemented with human recombinant epidermal growth factor 1-53 (EGF 1-53) and bovine pituitary extract (BFE).
Vehicle treated wells were set to 100% viability.

Data set [4] has as its system B16F10 xenografts in C57BL/6 mice. Put plainly: In vivo efficacy test, dermal treatment of intradermal B16-F10 tumours (tumour volume). Also on record: species or system mouse. The note with it: 20 μl of 0.2% leucinostatin A dermally, treatment not continued longer than 7 days, observed to day 16. The method, then: (§1) In vivo efficacy test methodology. C57Bl/6 mice (Janvier Labs); females; 6-8 weeks old at beginning of the treatment. The tumour was induced through intradermal inoculation of 1×10^5 cells per mouse intradermally in the skin of the neck. A total of 24 mice were used (n=8 for vehicle, n=8 for 5% 6027, n=8 for leucinostatin A 0.2%). Test item was applied starting on day 1 after inoculation of the tumour cells. The test items of 20 μl of 5% 6027 and of 0.2% Leucinostatin A were applied dermally with a pipette once a day every day for up to 21 days to the intact skin area of about 1 cm^2 on the site were the B16-F10 cells had been injected. If ulceration occurred then the animal was removed from the test and sacrificed.
The read out was tumour volume measured three times a week expressed as tumour volume (in cm^3). Additionally, tumour samples were taken for histological analysis (Tumour FFPE) (2 mice per group).

A short description of data set [5]: Dermal tolerability in the in vivo efficacy test. Also on record: species or system mouse. The method, then: as §1

Each structure is given as a SMILES string. pIC50: −log10 of the molar value. Entries after “also recorded” stand apart in the source; their conditions may differ. Where two headings read alike, the source gives them in different places. Numbered stars: 1 amine (or outer) side, 2 acyl side, 3 side chain; on linkers, the order of the positions; unused ones are H or OH. Square brackets hold non-standard residues; d marks the D form. Peptide text beside a SMILES is read from it. * marks the point of attachment. X1 = CCC(=O)C[C@H](O)C[C@@H](C)C[C@H](N[*:1])C(=O)[*:2]; Hexenoyl(2E,4S-Me) = CC[C@H](C)/C=C/C(=O)*; Leu(3R-OH) = CC(C)[C@@H](O)[C@H](N)C(=O)O; NH((S)CH(Me)CH2NMe2) = C[C@@H](CN(C)C)N*; Pro(4S-Me) = C[C@@H]1CN[C@H](C(=O)O)C1; X4 = C[C@](N[*:1])(C(=O)[*:2])C(F)(F)F; NH(1-CH2NMe2-cBu) = CN(C)CC1(N*)CCC1; Oxazole4CO(2-Me) = Cc1nc(C(=O)*)co1; Benzoyl(4-F) = O=C(c1ccc(F)cc1)*; hCha = N[C@@H](CCC1CCCCC1)C(=O)O; Aib = CC(C)(N)C(=O)O; X3 = CN(CCN*)CC(F)F; βAla = NCCC(=O)O

For the compound `CS(=O)(=O)c1ccc(C(=O)Nc2ccc(Cl)c(-c3ccccn3)c2)c(Cl)c1` [Vismodegib, reference compound], the “cell proliferation (Ki67)” value in data set [1] and in data set [2] was “significantly reduced” throughout. In data set [2], the “apoptotic cells (TUNEL positive cells)” value was “Significant increase”.

As for `CC(C)C[C@H](NC(=O)[C@H](CCC1CCCCC1)NC(=O)[C@@H]1CCCN1C(=O)c1ccc(F)cc1)C(=O)NC(C)(C)C(=O)N[C@@H](CC(C)C)C(=O)N[C@@H](CC(C)C)C(=O)NC(C)(C)C(=O)N[C@@](C)(C(=O)NCCC(=O)NC1(CN(C)C)CCC1)C(F)(F)F` [Compound 21359, (2S)-2-[(2S)-4-cyclohexyl-2-{[(2S)-1-(4-fluorobenzoyl)pyrrolidin-2-yl]formamido}butanamido]-N-(1-{[(1S)-1-{[(1S)-1-[(1-{[(1S)-1-{[2-({1-[(dimethylamino)methyl]cyclobutyl}carbamoyl)ethyl]carbamoyl}-2,2,2-trifluoro-1-methylethyl]carbamoyl}-1-methylethyl)carbamoyl]-3-methylbutyl]carbamoyl}-3-methylbutyl]carbamoyl}-1-methylethyl)-4-methylpentanamide] ({Benzoyl(4-F)}-P[hCha]L[Aib]LL[Aib][X4][βAla]-{NH(1-CH2NMe2-cBu)}), the pIC50 in data set [3] was 6.44.

As for `COc1ccc(-c2ccc(OC[C@H](NC(=O)[C@@H]3CCCN3C(=O)c3ccc(F)cc3)C(=O)N[C@@H](CC(C)C)C(=O)NC(C)(C)C(=O)N[C@@H](CC(C)C)C(=O)N[C@@H](CC(C)C)C(=O)NC(C)(C)C(=O)NC(C)(C)C(=O)NCCC(=O)NC3(CN(C)C)CCC3)cc2)cc1` [Compound 7824, (2S)—N-{1-[(1-{[2-({1-[(dimethylamino)methyl]cyclobutyl}carbamoyl)ethyl]carbamoyl}-1-methylethyl)carbamoyl]-1-methylethyl}-2-[(2S)-2-{2-[(2S)-2-[(2S)-2-{[(2S)-1-(4-fluorobenzoyl)pyrrolidin-2-yl]formamido}-3-({4′-methoxy-[1,1′-biphenyl]-4-yl}oxy)propanamido]-4-methylpentanamido]-2-methylpropanamido}-4-methylpentanamido]-4-methylpentanamide], in data set [3], the pIC50 was 6.43.

With `CCC(=O)C[C@H](O)C[C@@H](C)C[C@H](NC(=O)[C@@H]1C[C@H](C)CN1C(=O)/C=C/[C@@H](C)CC)C(=O)N[C@H](C(=O)NC(C)(C)C(=O)N[C@@H](CC(C)C)C(=O)N[C@@H](CC(C)C)C(=O)NC(C)(C)C(=O)NC(C)(C)C(=O)NCCC(=O)N[C@@H](C)CN(C)C)[C@H](O)C(C)C` [leucinostatin A, reference compound] ({Hexenoyl(2E,4S-Me)}-[Pro(4S-Me)][X1][Leu(3R-OH)][Aib]LL[Aib][Aib][βAla]-{NH((S)CH(Me)CH2NMe2)}; N-terminus and C-terminus assumed), the “reduction of tumour volume” value in data set [4] is recorded as “no significant reduction of tumour volume”. Also, the skin irritation entry in data set [5] (0.2% leucinostatin A (lowest test concentration)) is given as “strong skin irritation with destruction of the epidermis; also recorded: strong skin irritating effect”. Besides, in data set [5] (0.2% leucinostatin A once a day), the “tolerability of dermal treatment” value is recorded as “not tolerated”.

`CC(C)C[C@H](NC(=O)[C@H](CCC1CCCCC1)NC(=O)[C@@H]1CCCN1C(=O)c1ccc(F)cc1)C(=O)NC(C)(C)C(=O)N[C@@H](CC(C)C)C(=O)N[C@@H](CC(C)C)C(=O)NC(C)(C)C(=O)NC(C)(C)C(=O)NCCC(=O)NCCN(C)CC(F)F` [Compound 8342, (2S)-2-[(2S)-4-cyclohexyl-2-{[(2S)-1-(4-fluorobenzoyl)pyrrolidin-2-yl]formamido}butanamido]-N-(1-{[(1S)-1-{[(1S)-1-({1-[(1-{[2-({2-[(2,2-difluoroethyl)(methyl)amino]ethyl}carbamoyl)ethyl]carbamoyl}-1-methylethyl)carbamoyl]-1-methylethyl}carbamoyl)-3-methylbutyl]carbamoyl}-3-methylbutyl]carbamoyl}-1-methylethyl)-4-methylpentanamide] ({Benzoyl(4-F)}-P[hCha]L[Aib]LL[Aib][Aib][βAla]-X3): the pIC50 in data set [3] was 6.23.

As to `Cc1nc(C(=O)N2CCC[C@H]2C(=O)N[C@@H](Cc2ccccc2)C(=O)N[C@@H](CC(C)C)C(=O)NC(C)(C)C(=O)N[C@@H](CC(C)C)C(=O)N[C@@H](CC(C)C)C(=O)NC(C)(C)C(=O)NC(C)(C)C(=O)NCCC(=O)NC2(CN(C)C)CCC2)co1` [Compound 6328, (2S)—N-(1-{[(1S)-1-{[(1S)-1-({1-[(1-{[2-({1-[(dimethylamino)methyl]cyclobutyl}carbamoyl)ethyl]carbamoyl}-1-methylethyl)carbamoyl]-1-methylethyl}carbamoyl)-3-methylbutyl]carbamoyl}-3-methylbutyl]carbamoyl}-1-methylethyl)-4-methyl-2-[(2S)-2-{[(2S)-1-(2-methyl-1,3-oxazole-4-carbonyl)pyrrolidin-2-yl]formamido}-3-phenylpropanamido]pentanamide] ({Oxazole4CO(2-Me)}-PFL[Aib]LL[Aib][Aib][βAla]-{NH(1-CH2NMe2-cBu)}), in data set [3], the pIC50 was 5.78.
